This assay relates to Tetranychus urticae. The experiment in a line: Tetranychus urticae test (OP-resistant, dip application). Format: in vivo. To be noted: dip application of infested bush beans (Phaseolus vulgaris), OP-resistant spider mites. The procedure: Tetranychus urticae—Test (OP-Resistent, Dip Application)
To produce a suitable preparation of active compound, 1 part by weight of active compound is mixed with the stated amounts of solvent and emulsifier, and the concentrate is diluted with water to the desired concentrations.
Busch beans (Phaseolus vulgaris), which are heavily infected by the greenhouse red spider mite (Tetranychus urticae) are dipped into an active compound preparation of the desired concentration.
After the desired period of time, the kill in % is determined. 100% means that all spider mites have been killed; 0% means that none of the spider mites have been killed.

Consider `CC1(C)[C@H](/C=C(\Cl)C(F)(F)F)[C@@H]1C(=O)O[C@H](C#N)c1cccc(Oc2ccccc2)c1` [gamma-cyhalothrin], for which the “Kill in % after 6 d” value (100 ppm) is reported as 65%.

For `Cc1cc(C)c(C2=C(OC(=O)CC(C)(C)C)C3(CCCC3)OC2=O)c(C)c1` [spiromesifen], for the setting “0.16 ppm”, the “Kill in % after 6 d” value amounted to 0%.

The values above are taken from US20090156669A1, “COMBINATION OF ACTIVE INGREDIENTS WITH INSECTICIDAL AND ACARICIDAL PROPERTIES” (Bayer CropScience AG, priority 2006, published 2009).
